Assay results taken from the supplement of paper PMC10307832.

Legend:
Test in all cases: relative viability (nuclei count vs DMSO), 5 days (fraction); higher = more cells survive
[1] = compound: CC1=CC(=CC=C1)NC2=NC(=CS2)C3=CC=NC=C3 + COc1cccc2cc(-c3nc([C@H]4CC[C@H](C(=O)O)CC4)n4ncnc(N)c34)[nH]c12 [OSI-027] (partner 0.5 µM)
Summary of the method: (§1)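 Values are medians from duplicate plates. Each reflects relative viability, defined as the nuclei count of treated wells over that of vehicle wells. Lung cancer cell lines in 1536-well plates were pin-tool dosed one day after seeding with one drug alone or with a fixed anchor-drug dose plus five library-drug doses (not always all listed) in √10 steps, then fixed, stained and imaged at 4× after 5 days.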

[2] = compound: CC1=CC(=CC=C1)NC2=NC(=CS2)C3=CC=NC=C3 + O=C(CCCCCCC(=O)Nc1ccccc1)NO [Vorinostat] (partner 1 µM)
Summary of the method: as §1

Masitinib + Navitoclax = compound: Cc1ccc(NC(=O)c2ccc(CN3CCN(C)CC3)cc2)cc1Nc1nc(-c2cccnc2)cs1 [Masitinib] + CC1(C)CCC(c2ccc(Cl)cc2)=C(CN2CCN(c3ccc(C(=O)NS(=O)(=O)c4ccc(N[C@H](CCN5CCOCC5)CSc5ccccc5)c(S(=O)(=O)C(F)(F)F)c4)cc3)CC2)C1 [Navitoclax] (partner 0.5 µM)
Summary of the method: as §1

Masitinib + Linsitinib = compound: Cc1ccc(NC(=O)c2ccc(CN3CCN(C)CC3)cc2)cc1Nc1nc(-c2cccnc2)cs1 [Masitinib] + C[C@]1(O)C[C@@H](c2nc(-c3ccc4ccc(-c5ccccc5)nc4c3)c3c(N)nccn32)C1 [Linsitinib] (partner 1 µM)
Summary of the method: as §1

Row | Cell Line | relative viability ([1]; first compound 0.08 µM) | relative viability ([1]; first compound 0.253 µM) | relative viability ([1]; first compound 0.8 µM) | relative viability ([1]; first compound 2.53 µM) | relative viability ([1]; first compound 8 µM) | relative viability ([2]; first compound 0.08 µM) | relative viability ([2]; first compound 0.253 µM) | relative viability ([2]; first compound 0.8 µM) | relative viability ([2]; first compound 2.53 µM) | relative viability ([2]; first compound 8 µM) | relative viability (Masitinib + Navitoclax; first compound 0.01 µM) | relative viability (Masitinib + Navitoclax; first compound 0.03162 µM) | relative viability (Masitinib + Navitoclax; first compound 0.1 µM) | relative viability (Masitinib + Navitoclax; first compound 0.3162 µM) | relative viability (Masitinib + Navitoclax; first compound 1 µM) | relative viability (Masitinib + Linsitinib; first compound 0.01 µM) | relative viability (Masitinib + Linsitinib; first compound 0.03162 µM) | relative viability (Masitinib + Linsitinib; first compound 0.1 µM) | relative viability (Masitinib + Linsitinib; first compound 0.3162 µM) | relative viability (Masitinib + Linsitinib; first compound 1 µM)
1 | LK-2 | 0.165 | 0.181 | 0.237 | 0.185 | 0.214 | 0.356 | 0.307 | 0.527 | 0.402 | 1 | 1.01 | 0.855 | 1.06 | 1.21 | 0.885 | 0.511 | 0.573 | 0.618 | 0.649 | 0.812
2 | LOU-NH91 | 0.552 | 0.642 | 0.651 | 0.648 | 0.711 | 0.766 | 0.776 | 0.887 | 0.861 | 0.436 | 0.651 | 0.653 | 0.791 | 0.589 | 0.673 | 0.909 | 0.893 | 0.972 | 0.928 | 0.911
3 | LU99A | 0.271 | 0.271 | 0.296 | 0.284 | 0.288 | 0.445 | 0.601 | 0.582 | 0.443 | 0.479 | 0.755 | 0.758 | 0.887 | 0.97 | 0.791 | 0.511 | 0.53 | 0.512 | 0.719 | 0.505
4 | LXF-289 | 0.794 | 0.786 | 0.753 | 0.729 | 0.838 | 0.746 | 0.808 | 0.801 | 0.679 | 0.718 | 0.843 | 0.927 | 0.966 | 0.992 | 0.934 | 0.804 | 0.999 | 0.901 | 0.981 | 0.944
5 | NCI-H23 | 0.48 | 0.485 | 0.654 | 0.526 | 0.555 | 0.519 | 0.613 | 0.596 | 0.526 | 0.612 | 0.879 | 0.789 | 0.966 | 0.706 | 0.872 | 0.656 | 0.58 | 0.613 | 0.525 | 0.493
6 | NCI-H322M | 0.418 | 0.508 | 0.574 | 0.519 | 0.565 | 0.788 | 0.759 | 0.916 | 0.814 | 0.95 | 1.18 | 1.15 | 1.3 | 1.22 | 1.26 | 0.975 | 0.736 | 0.91 | 0.681 | 0.912
7 | NCI-H441 | 0.492 | 0.499 | 0.605 | 0.61 | 0.672 | 0.705 | 0.955 | 0.842 | 0.746 | 0.76 | 0.782 | 0.78 | 0.522 | 0.749 | 0.602 | 0.563 | 0.532 | 0.501 | 0.534 | 0.497
8 | NCI-H460 | 0.623 | 0.522 | 0.628 | 0.486 | 0.341 | 0.54 | 0.536 | 0.562 | 0.462 | 0.395 | 1.22 | 0.834 | 1.27 | 1.33 | 1.26 | 0.934 | 0.934 | 0.977 | 1.26 | 1.07
